Experimental findings from patent US5134138A, “Phenacylpyridiniothiocephalosporins” (Shionogi & Co., Ltd., priority 1989, dated 1992) are described below.

In brackets after ≈: the same amount, converted by molar mass. Read-outs that look alike come from different tables or passages of the source.

Series [1] has as its system Pseudomonas aeruginosa SR 5018. In words: minimal inhibitory concentration (agar plate two-fold dilution), ofloxacin resistant Pseudomonas aeruginosa SR 5018. The class given is cell-based. The conditions noted are these: SR5018. As for the experimental part: (§1) 3) The said sodium salt (1 g) prepared by neutralizing under sterile condition is dissolved in distilled water for injection (4 g) and administered to a patient suffering from sensitive pseudomonal bacteria twice a day intravenously to treat this infection. The free acid or sodium salt is dissolved in 0.01N-aqueous sodium hydrogen carbonate and tested for minimal inhibitory concentration against gram-negative bacteria according to a method of Japan Society of Chemotherapy on an agar plate by two-fold dilution method.

The test system of series [2] is Escherichia coli SR 5082. In words: minimal inhibitory concentration (agar plate two-fold dilution), Escherichia coli SR 5082. Format: cell-based. The settings on record: SR5082. As for the experimental part: as §1
Series [3] has as its system Pseudomonas aeruginosa SR 24. In words: minimal inhibitory concentration (agar plate two-fold dilution), Pseudomonas aeruginosa SR 24. The class given is cell-based. As for the experimental part: as §1
The minimal inhibitory concentration of Compound (I) where R^1 is 2-(2-amino-4-thiazolyl)-2-(1-carboxy-1-methylethoxyimino)acetamido, R^2 is hydrogen, R^3 is hydrogen, R^4 is 3,4-dihydroxyphenyl, R^5 is methylene, R^6 combined with Y- is negative charge, and X is sulfur against Pseudomonas aeruginosa SR 24 is 0.2 μg/ml. By altering the groups with the following ones to vary the activities as listed below.

Series [4] relates to Pseudomonas aeruginosa SR 24. In words: 50% effective dose preventing lethal Pseudomonas aeruginosa SR 24 mouse infection. The class given is in vivo. From the text: (§2) The compound is highly safe in the case of intravenous injection to various animals.
The test system of series [5] is mice. Briefly: safety, intravenous injection in mice. The settings on record: up to 1 g/kg. The class given is in vivo.
From the text: as §2

In series [6] the test system is rabbits. Format: in vivo. The conditions noted are these: up to 1 g/kg.
From the text: as §2

Series [7] has as its system various animals. In words: safety, intravenous injection to various animals. Format: in vivo.
From the text: as §2

Where [8] appears, read: ofloxacin resistant Pseudomonas aeruginosa SR 5018, read-out: MIC.
[9] abbreviates: SR24, Pseudomonas aeruginosa SR 24, Experiment 1, read-out: minimal inhibitory concentration.

Take `CC(C)(ON=C(C(=O)N[C@@H]1C(=O)N2C(C(=O)[O-])=C(C[n+]3ccc4cc(O)c(O)cc4c3)CS[C@H]12)c1csc(N)n1)C(=O)O` [BO-1341, 3-(6,7-dihydroxyisoquinolinio)methyl-7β-(2-(2-aminothiazol-4-yl)-2-(1-carboxy-1-methylethoxyimino)acetamido)-3-cephem-4-carboxylate, reference compound]: the MIC worked out at 0.4 µg/mL (≈ 0.636 µM) in series [1] (setting [8]) and 1.6 µg/mL (≈ 2.55 µM) in series [2].
For the molecule `CON=C(C(=O)N[C@@H]1C(=O)N2C(C(=O)[O-])=C(C[N+]34CCC(C(N)=O)(CC3)CC4)CS[C@H]12)c1nsc(N)n1` [E-1040, 3-(4-carbamoylquinuclidinio)methyl-7β-[2-(5-amino-1,2,4-thiadiazol-3-yl)-2-methoxyimino]-acetamido-3-cephem-4-carboxylate, reference compound], the MIC in series [1] (Pseudomonas aeruginosa) came to 6.3 µg/mL (≈ 11.4 µM).
As to `O=C(Cc1ccccc1)N[C@@H]1C(=O)N2C(C(=O)[O-])=C(CSc3cc[n+](CC(=O)c4ccc(O)c(O)c4)cc3)CS[C@H]12` [No. 1], in series [3] (setting [9]), the MIC is more than 100 µg/mL.
Still for that read-out and setting: the figure for `CON=C(C(=O)N[C@@H]1C(=O)N2C(C(=O)[O-])=C(CSc3cc[n+](CC(=O)c4ccc(O)c(O)c4)cc3)CS[C@H]12)c1csc(N)n1` [No. 5] is 0.4 µg/mL (≈ 0.609 µM); for `CC(C)(ON=C(C(=O)N[C@@H]1C(=O)N2C(C(=O)[O-])=C(CSc3cc[n+](CC(=O)c4cccc(O)c4O)cc3)CS[C@H]12)c1csc(N)n1)C(=O)O` [No. 7] it is 0.39 µg/mL (≈ 0.535 µM).
On to `CC(C)(ON=C(C(=O)N[C@@H]1C(=O)N2C(C(=O)[O-])=C(CSc3cc[n+](CC(=O)c4ccc(O)c(O)c4)cc3)CS[C@H]12)c1csc(N)n1)C(=O)O` [No. 8], for which, in series [3] (setting [9]), the MIC is 0.2 µg/mL (≈ 0.274 µM). Also, the ED50 (commonly the dose that gives a 50% effect, or the effect in half of the subjects) in series [4] (Pseudomonas aeruginosa, SR24, read-out: ED50 (50% effective dose preventing lethal infection), Pseudomonas aeruginosa SR 24, mouse infection) was in the range of 1.35 to 6.27 mg/kg.
With `CC(C)(ON=C(C(=O)N[C@@H]1C(=O)N2C(C(=O)[O-])=C(CSc3cc[n+](CC(=O)c4ccc(O)c(O)c4)cc3)C[S+]([O-])[C@H]12)c1csc(N)n1)C(=O)O` (some centres unmarked) [No. 9], the “times activity versus E-1040 (MIC)” value in series [1] (Pseudomonas aeruginosa) was 63 times. The “times activity versus ceftazidime (MIC)” value in series [1] (Pseudomonas aeruginosa) turned out to be 250 times. The MIC came out at 0.1 µg/mL (≈ 0.134 µM) in series [1] (setting [8]); 0.1 µg/mL (≈ 0.134 µM) in series [3] (Pseudomonas aeruginosa SR 24, listed as representative compound (I)); 0.1 µg/mL (≈ 0.134 µM) in series [3] (setting [9]); 0.1 µg/mL (≈ 0.134 µM) in series [3] (SR24, Pseudomonas aeruginosa SR 24, read-out: MIC); 0.2 µg/mL (≈ 0.269 µM) in series [2]. In addition, the “ED50 (50% effective dose preventing lethal infection)” value in series [4] (Pseudomonas aeruginosa SR 24, mouse infection, listed as Compound (I) where X is sulfinyl) is given as 1.35 mg/kg. Also, in series [5], the death result is “no death”. Also, in series [5], the “toxic effect as Antabuse-like activity” value is recorded as “no death nor toxic effect as Antabuse-like activity”. The renal toxicity result in series [6] is on record as “did not show renal toxicity”. For the same molecule, the safety result in series [7] was “highly safe”.
`CC(=O)Oc1ccc(C(=O)C[n+]2ccc(SCC3=C(C(=O)[O-])N4C(=O)[C@@H](NC(=O)C(=NOC(C)(C)C(=O)O)c5csc(N)n5)[C@H]4SC3)cc2)cc1OC(C)=O` [No. 11]: the MIC in series [3] (setting [9]) turned out to be 0.025 µg/mL (≈ 0.0308 µM).
As for `CC(C)(ON=C(C(=O)N[C@@H]1C(=O)N2C(C(=O)[O-])=C(CSc3cc[n+](CC(=O)c4ccc(O)c(O)c4)cc3)CO[C@H]12)c1csc(N)n1)C(=O)O` [No. 13], the MIC in series [3] (setting [9]) was found to be 0.2 µg/mL (≈ 0.281 µM).
Same read-out and setting: the figure for `Cc1cc(O)c(O)cc1C(=O)C[n+]1ccc(SCC2=C(C(=O)[O-])N3C(=O)[C@@H](NC(=O)C(=NOC(C)(C)C(=O)O)c4csc(N)n4)[C@H]3SC2)cc1` [No. 14] is 0.05 µg/mL (≈ 0.0673 µM); for `CC(C)(ON=C(C(=O)N[C@@H]1C(=O)N2C(C(=O)[O-])=C(CSc3cc[n+](CC(=O)c4cc(O)c(O)c(Cl)c4)cc3)CS[C@H]12)c1csc(N)n1)C(=O)O` [No. 18] it is 0.025 µg/mL (≈ 0.0328 µM).
Take `CC(C)(ON=C(C(=O)N[C@@H]1C(=O)N2C(C(=O)[O-])=C(CSc3cc[n+](CC(=O)c4cc(O)c(O)cc4Cl)cc3)CS[C@H]12)c1csc(N)n1)C(=O)O` [No. 22 (3,4-OH-6-Cl)]: the MIC in series [3] (setting [9]) worked out at 0.025 µg/mL (≈ 0.0328 µM).
With `CC(C(=O)c1ccc(O)c(O)c1)[n+]1ccc(SCC2=C(C(=O)[O-])N3C(=O)[C@@H](NC(=O)C(=NOC(C)(C)C(=O)O)c4csc(N)n4)[C@H]3SC2)cc1` (some centres unmarked) [No. 23], the MIC in series [3] (setting [9]) was determined as 0.025 µg/mL (≈ 0.0337 µM).
Consider `CC(C)(ON=C(C(=O)N[C@@H]1C(=O)N2C(C(=O)[O-])=C(CSc3cc[n+](CC(=O)c4ccc(O)c(O)c4)c4c3CCC4)CS[C@H]12)c1csc(N)n1)C(=O)O` [No. 25], for which the MIC in series [3] (setting [9]) came to 0.05 µg/mL (≈ 0.065 µM).
On the same count and under the same terms, with `CC(C)(C=C(C(=O)N[C@@H]1C(=O)N2C(C(=O)[O-])=C(CSc3cc[n+](CC(=O)c4ccc(O)c(O)c4)cc3)CS[C@H]12)c1csc(N)n1)C(=O)O` [No. 27] the figure was 0.1 µg/mL (≈ 0.14 µM).
Take `CC(C)(O/N=C(\C(=O)N[C@@H]1C(=O)N2C(C(=O)[O-])=C(C[n+]3ccccc3)CS[C@H]12)c1csc(N)n1)C(=O)O` [ceftazidime, reference compound]: the MIC in series [1] (Pseudomonas aeruginosa) was 25 µg/mL (≈ 45.7 µM).
